In publication PMC7785020, “A unique hormonal recognition feature of the human glucagon-like peptide-2 receptor” (Cell Research, 2020):
Numbering of substitutions follows the chain as printed.

Assays:
Parameters in all cases: WT (1–553); expressed in transfected cells
GLP-2R W340^5.36A = biological target: T1, GLP-2R W340^5.36A (Homo sapiens, UniProt O95838, W340A); assay: radioligand competition binding, W340^5.36A; conditions: COS-7, W340^5.36A; [^125I]GLP-2(1–33, M10Y) 10–15 pM, 4 h, 4 °C; mean ± SEM, n ≥ 3 in duplicate
T1 sequence (O95838 1-553 W340A): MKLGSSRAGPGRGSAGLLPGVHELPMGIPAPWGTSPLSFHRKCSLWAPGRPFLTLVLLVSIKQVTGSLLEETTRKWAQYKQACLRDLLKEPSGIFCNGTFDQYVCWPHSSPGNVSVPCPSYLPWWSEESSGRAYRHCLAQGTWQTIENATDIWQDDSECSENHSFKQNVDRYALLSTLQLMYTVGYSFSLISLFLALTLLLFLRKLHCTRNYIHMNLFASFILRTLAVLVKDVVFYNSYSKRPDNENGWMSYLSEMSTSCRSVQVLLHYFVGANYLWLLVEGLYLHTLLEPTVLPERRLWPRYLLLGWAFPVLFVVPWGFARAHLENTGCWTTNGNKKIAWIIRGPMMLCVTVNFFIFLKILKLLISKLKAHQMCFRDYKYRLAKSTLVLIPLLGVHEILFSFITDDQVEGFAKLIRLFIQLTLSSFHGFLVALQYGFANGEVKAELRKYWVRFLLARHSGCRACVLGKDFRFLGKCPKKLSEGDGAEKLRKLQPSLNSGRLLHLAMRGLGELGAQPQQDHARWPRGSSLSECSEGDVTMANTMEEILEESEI
Experimental: (§1) A stepwise oxidation reaction was performed by addition of 6 aliquots of 5 µL ChloramineT (30 µL/mL) with a 1-min interval during constant stirring. The reaction was terminated by the addition of 400 µL phase A (0.1% trifluoracetic acid) before being fractionated into 1 mL volume by reverse-phase high-performance liquid chromatography (RP-HPLC, Waters 600 SimiPrep system) on a C18 column. The iodinated protein was […] by increasing concentrations of phase B (Acetonitrile + 0.1% TFA) and tested for competitive binding ability.
(§2) One day before transfection, the COS-7 cells were seeded in 75 cm^2 culture flasks (3 million cells/flask) in DMEM, containing 3.9 g/L NaHCO3 and supplemented with 10% FBS, 1% L-glutamine, 180 units/mL penicillin and 45 µg/mL streptomycin. After an overnight culture at 37 °C, 10% CO2 and 95% air humidity, the cells were transiently transfected with different GLP-2R constructs or pcDNA3.1 vector as previously described.[52] Following 24-h incubation, the cells were transferred to Costa® microtiter plates (150,000 cells/well, PerkinElmer) to achieve a 5%–10% specific binding. […] The cells were then washed twice in binding buffer (4 °C), lysed and counted for radioactivity using a Wallac Gamma Counter (PerkinElmer).

GLP-2R Y186^1.47A = biological target: T2, GLP-2R Y186^1.47A (Homo sapiens, UniProt O95838, Y186A); assay: radioligand competition binding, Y186^1.47A; conditions: COS-7, Y186^1.47A; [^125I]GLP-2(1–33, M10Y) 10–15 pM, 4 h, 4 °C; n ≥ 3 in duplicate
T2 sequence (O95838 1-553 Y186A): T1 sequence (O95838 1-553 W340A) with Y186A, A340W
Experimental: as §1, §2

GLP-2R Y252^ECL1A = biological target: T3, GLP-2R Y252^ECL1A (Homo sapiens, UniProt O95838, Y252A); assay: radioligand competition binding, Y252^ECL1A; conditions: COS-7, Y252^ECL1A; [^125I]GLP-2(1–33, M10Y) 10–15 pM, 4 h, 4 °C; mean ± SEM, n ≥ 3 in duplicate
T3 sequence (O95838 1-553 Y252A): T1 sequence (O95838 1-553 W340A) with Y252A, A340W
Experimental: as §1, §2

Row | Compound | % Binding of WT (GLP-2R W340^5.36A) [%] | % Binding of WT (GLP-2R Y186^1.47A) | % Binding of WT (GLP-2R Y252^ECL1A) [%]
1 | CC[C@H](C)[C@H](NC(=O)[C@H](Cc1ccccc1)NC(=O)[C@H](CC(=O)O)NC(=O)[C@H](CCCNC(=N)N)NC(=O)[C@H](C)NC(=O)[C@H](C)NC(=O)[C@H](CC(C)C)NC(=O)[C@H](CC(N)=O)NC(=O)[C@H](CC(=O)O)NC(=O)[C@H](CC(C)C)NC(=O)[C@@H](NC(=O)[C@@H](NC(=O)[C@H](CC(N)=O)NC(=O)[C@H](CCSC)NC(=O)[C@H](CCC(=O)O)NC(=O)[C@H](CC(=O)O)NC(=O)[C@H](CO)NC(=O)[C@H](Cc1ccccc1)NC(=O)[C@H](CO)NC(=O)CNC(=O)[C@H](CC(=O)O)NC(=O)[C@H](C)NC(=O)[C@@H](N)Cc1c[nH]cn1)[C@@H](C)O)[C@@H](C)CC)C(=O)N[C@@H](CC(N)=O)C(=O)N[C@@H](Cc1c[nH]c2ccccc12)C(=O)N[C@@H](CC(C)C)C(=O)N[C@H](C(=O)N[C@@H](CCC(N)=O)C(=O)N[C@H](C(=O)N[C@@H](CCCCN)C(=O)N[C@H](C(=O)N[C@H](C(=O)N[C@@H](CC(=O)O)C(=O)O)[C@@H](C)O)[C@@H](C)CC)[C@@H](C)O)[C@@H](C)CC [Human GLP-2 (1–33)] | 7.3 ± 0.6 | N.B. | 8.3 ± 1.8
2 | CC[C@H](C)[C@H](NC(=O)[C@H](Cc1ccccc1)NC(=O)[C@H](CC(=O)O)NC(=O)[C@H](CCCNC(=N)N)NC(=O)[C@H](C)NC(=O)[C@H](C)NC(=O)[C@H](CC(C)C)NC(=O)[C@H](CC(N)=O)NC(=O)[C@H](CC(=O)O)NC(=O)[C@H](CC(C)C)NC(=O)[C@@H](NC(=O)[C@@H](NC(=O)[C@H](CC(N)=O)NC(=O)[C@H](CCSC)NC(=O)[C@H](CCC(=O)O)NC(=O)[C@H](CC(=O)O)NC(=O)[C@H](CO)NC(=O)[C@H](Cc1ccccc1)NC(=O)[C@H](CO)NC(=O)CNC(=O)[C@H](CC(=O)O)NC(=O)CNC(=O)[C@@H](N)Cc1c[nH]cn1)[C@@H](C)O)[C@@H](C)CC)C(=O)N[C@@H](CC(N)=O)C(=O)N[C@@H](Cc1c[nH]c2ccccc12)C(=O)N[C@@H](CC(C)C)C(=O)N[C@H](C(=O)N[C@@H](CCC(N)=O)C(=O)N[C@H](C(=O)N[C@@H](CCCCN)C(=O)N[C@H](C(=O)N[C@H](C(=O)N[C@@H](CC(=O)O)C(=O)O)[C@@H](C)O)[C@@H](C)CC)[C@@H](C)O)[C@@H](C)CC [Teduglutide] | 8.6 ± 1.8 | N.B. | 6.3 ± 1.7
